Experimental data reported in PMC8464070 (Nucleic Acids Research, 2021).
Several values for one entry are separate records, joined by “and”; a condition that tells them apart may be missing. Equal values may be shown once.

How the values were obtained:
RslTpt1 [1] = molecular target: T1, RslTpt1 (Runella slithyformis, UniProt A0A7U3ZK32); assay: Isothermal titration calorimetry; type: binding
T1 sequence (A0A7U3ZK32 5-178): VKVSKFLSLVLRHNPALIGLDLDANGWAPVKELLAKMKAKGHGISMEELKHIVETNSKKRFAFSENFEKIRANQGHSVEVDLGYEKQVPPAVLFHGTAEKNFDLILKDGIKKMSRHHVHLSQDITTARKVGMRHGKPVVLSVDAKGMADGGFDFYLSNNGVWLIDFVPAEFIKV

RslTpt1 [2] = molecular target: T1, RslTpt1; assay: NMR ligand-induced chemical shift perturbations on RslTpt1; type: binding; conditions: for backbone chemical shift perturbations induced on RslTpt1 (result in words): 15N,1H HSQC, 10 molar equivalents of ligand

SMILES | fold less affinity than NAD^+ (RslTpt1 [1]; ratio of ITC KD values, NADP^+ versus NAD^+) [fold] | Kd (RslTpt1 [1]; read-out: apparent KD, ITC, 17°C, approximate value) [µM] | average backbone amide chemical shift perturbation Δδ, N-lobe (RslTpt1 [2]; 15N,1H resonances, 4 molar equivalents of NADP^+) | backbone chemical shift perturbations induced on RslTpt1 (result in words) (RslTpt1 [2])
NC(=O)c1ccc[n+]([C@@H]2O[C@H](COP(=O)([O-])OP(=O)(O)OC[C@H]3O[C@@H](n4cnc5c(N)ncnc54)[C@H](OP(=O)(O)O)[C@@H]3O)[C@@H](O)[C@H]2O)c1 [NADP^+] | ~30 | ~1000 | 0.02 ± 0.03 ppm and 0.02 ppm | 
NC(=O)c1ccc[n+]([C@@H]2O[C@H](COP(=O)([O-])O)[C@@H](O)[C@H]2O)c1 [NMN, β-nicotinamide mononucleotide] |  |  |  | no significant CSPs
NC(=O)c1cccnc1 [Nicotinamide, nicotinamide] |  |  |  | no significant CSPs
